From patent publication US20060069132A1, “Azolecarboxamide herbicides” (priority 2004, published 2006)

Key:
[1] = system: barnyardgrass; assay: Test B pre-/postemergence herbicide test; type: in vivo, Echinochloa crus-galli; conditions: for Barnyardgrass plant response rating: postemergence
Outline: (§1)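 Formulation: non-phytotoxic solvent mix with surfactant. Timing: preemergence on seed and postemergence on 2–18 cm plants, applied concurrently. Readout after 13–15 d greenhouse: visual 0–100 control rating against controls.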

[2] = system: Surinam grass; assay: Test B pre-/postemergence herbicide test; type: in vivo, Urochloa decumbens; conditions: for Surinam Grass plant response rating: postemergence
Outline: (§2)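 Herbicidal effect was judged by eye on a 0–100 scale after plants stood 13 to 15 days in the greenhouse following pre- or postemergence treatment with surfactant-containing formulations.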

[3] = system: cocklebur; assay: Test B pre-/postemergence herbicide test; type: in vivo, Xanthium strumarium; conditions: for Cocklebur plant response rating: postemergence
Outline: as §1

[4] = system: corn; assay: Test B pre-/postemergence herbicide test; type: in vivo, Zea mays; conditions: for Corn plant response rating: postemergence
Outline: as §2

[5] = system: large crabgrass; assay: Test B pre-/postemergence herbicide test; type: in vivo, Digitaria sanguinalis; conditions: for Crabgrass, Large plant response rating: postemergence
Outline: as §2

[6] = system: giant foxtail; assay: Test B pre-/postemergence herbicide test; type: in vivo, Setaria faberi; conditions: for Foxtail, Giant plant response rating: postemergence
Outline: as §2

[7] = system: lambsquarters; assay: Test B pre-/postemergence herbicide test; type: in vivo, Chenopodium album; conditions: for Lambsquarters plant response rating: postemergence
Outline: as §2

[8] = system: morningglory; assay: Test B pre-/postemergence herbicide test; type: in vivo, Ipomoea coccinea; conditions: for Morningglory plant response rating: postemergence
Outline: as §1

[9] = system: pigweed; assay: Test B pre-/postemergence herbicide test; type: in vivo, Amaranthus retroflexus; conditions: for Pigweed plant response rating: postemergence
Outline: as §2

[10] = system: velvetleaf; assay: Test B pre-/postemergence herbicide test; type: in vivo, Abutilon theophrasti; conditions: for Velvetleaf plant response rating: postemergence
Outline: as §2

[11] = system: blackgrass; assay: Test B postemergence herbicide test; type: in vivo, Alopecurus myosuroides; conditions: postemergence
Outline: (§3)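 Scale 0–100: zero equals no visible effect, 100 complete control, judged by eye relative to controls. Timing: 13 to 15 days in greenhouse post-treatment. Growth stage at spraying: two leaves (paddy) or one to four leaves, 2–18 cm (postemergence).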

[12] = system: wheat; assay: Test B postemergence herbicide test; type: in vivo, Triticum aestivum; design: key to Wheat plant response rating: 0 = no effect, 100 = complete control; conditions: postemergence
Outline: (§4)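 Postemergence plants were sprayed with formulated test chemicals at 2 to 18 cm height (1- to 4-leaf stage); paddy species were grown to the 2-leaf stage. After 13 to 15 days in a greenhouse, injury was rated visually against untreated controls on a 0–100 scale (0 = no effect, 100 = complete control).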

[13] = system: wild oat; assay: Test B postemergence herbicide test; type: in vivo, Avena fatua; conditions: postemergence
Outline: as §4

[14] = system: rice; assay: Test B flooded paddy test; type: in vivo, Oryza sativa; conditions: 1000 g ai/ha, scale 0 to 100 (0 no effect, 100 complete control)
Outline: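 Treated at 2-leaf (paddy) or 1–4-leaf, 2–18 cm (postemergence); greenhouse 13–15 d; visual score vs control, 0 none to 100 complete control; dash = not tested.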

[15] = system: small flower umbrella sedge; assay: Test B flooded paddy test; type: in vivo, Cyperus difformis; conditions: 1000 g ai/ha, scale 0 to 100 (0 no effect, 100 complete control)
Outline: as §3

[16] = system: ducksalad; assay: Test B flooded paddy test; type: in vivo, Heteranthera limosa; conditions: 1000 g ai/ha, scale 0 to 100 (0 no effect, 100 complete control)
Outline: as §3

[17] = system: barnyardgrass; assay: Test B flooded paddy test; type: in vivo, Echinochloa crus-galli; conditions: 1000 g ai/ha, scale 0 to 100 (0 no effect, 100 complete control)
Outline: as §3

[18] = system: rice; assay: Test C flooded paddy test; type: in vivo, Oryza sativa
Protocol: (§5) At the same time, plants selected from these crop and weed species and also winter barley (Hordeum vulgare L.), blackgrass (Alopecurus myosuroides Huds.), canarygrass (Phalaris minor Retz.), chickweed (Stellaria media (L.) Vill.), downy bromegrass (Bromus tectorum L.), green foxtail (Setaria viridis (L.) Beauv.), Italian ryegrass (Lolium multiflorum Lam.), wheat (Triticum aestivum L.), wild oat (Avenafatua L.) and windgrass (Apera spica-venti (L.) Beauv.) were treated with postemergence applications of some of the test chemicals formulated in the same manner. Plants ranged in height from 2 to 18 cm (1- to 4-leaf stage) for postemergence treatments. Plant species in the flooded paddy test consisted of rice (Oryza sativa), smallflower umbrella sedge (Cyperus difformis L.), ducksalad (Heteranthera limosa (Sw.) Willd.) and barnyardgrass (Echinochloa crus-galli (L.) Beauv.) grown to the 2-leaf stage for testing. Treated plants and controls were maintained in a greenhouse for 12 to 14 days, after which time all species were compared to controls and visually evaluated. Plant response ratings, summarized in Table C, are based on a scale of 0 to 100 where 0 is no effect and 100 is complete control. A dash (-) response means no test result.

[19] = system: smallflower umbrella sedge; assay: Test C flooded paddy test; type: in vivo, Cyperus difformis
Protocol: as §5

[20] = system: ducksalad; assay: Test C flooded paddy test; type: in vivo, Heteranthera limosa
Protocol: as §5

[21] = system: barnyardgrass; assay: Test C flooded paddy test; type: in vivo, Echinochloa crus-galli
Protocol: as §5

[22] = 125 g ai/ha, 0 is no effect, 100 is complete control, preemergence
[23] = 125 g ai/ha, visual rating, scale 0 (no effect) to 100 (complete control)
[24] = 500 g ai/ha, visual rating, 0 = no effect, 100 = complete control, preemergence
[25] = 500 g ai/ha, scale 0 to 100, 0 is no effect, 100 is complete control
[26] = 125 g ai/ha, scale 0 to 100 (0 no effect, 100 complete control)
[27] = 250 g ai/ha, scale of 0 to 100, 0 is no effect, 100 is complete control
[28] = 500 g ai/ha, visual rating after 12 to 14 days, scale 0 to 100 (0 no effect, 100 complete control)

## CCNC(=S)c1ccc(F)c(NC(=O)c2cc(C(C)(C)C)nn2CC)c1 [Compound 349]
[1]; [22]
  Plant response rating (0 to 100 scale), Barnyardgrass: 80
[1]; [23]
  Barnyardgrass plant response rating: 0
[1]; [24]
  Plant response rating, Barnyardgrass: 100
[1]; [25]
  Barnyardgrass plant response rating: 10
[2]; [22]
  Plant response rating (0 to 100 scale), Surinam Grass: 50
[2]; [23]
  Surinam Grass plant response rating: 0
[2]; [24]
  Plant response rating, Surinam Grass: 90
[2]; [25]
  Surinam Grass plant response rating: 20
[3]; [22]
  Plant response rating (0 to 100 scale), Cocklebur: 0
[3]; [23]
  Cocklebur plant response rating: 0
[3]; [24]
  Plant response rating, Cocklebur: 80
[3]; [25]
  Cocklebur plant response rating: 20
[4]; [22]
  Plant response rating (0 to 100 scale), Corn: 70
[4]; [23]
  Corn plant response rating: 0
[4]; [24]
  Plant response rating, Corn: 80
[4]; [25]
  Corn plant response rating: 10
[5]; [22]
  Plant response rating (0 to 100 scale), Crabgrass, Large: 100
[5]; [23]
  Crabgrass, Large plant response rating: 20
[5]; [24]
  Plant response rating, Crabgrass, Large: 100
[5]; [25]
  Crabgrass, Large plant response rating: 20
[6]; [22]
  Plant response rating (0 to 100 scale), Foxtail, Giant: 70
[6]; [23]
  Foxtail, Giant plant response rating: 0
[6]; [24]
  Plant response rating, Foxtail, Giant: 100
[6]; [25]
  Foxtail, Giant plant response rating: 30
[7]; [22]
  Plant response rating (0 to 100 scale), Lambsquarters: 100
[7]; [23]
  Lambsquarters plant response rating: 0
[7]; [24]
  Plant response rating, Lambsquarters: 100
[7]; [25]
  Lambsquarters plant response rating: 80
[8]; [22]
  Plant response rating (0 to 100 scale), Morningglory: 0
[8]; [23]
  Morningglory plant response rating: 0
[8]; [24]
  Plant response rating, Morningglory: 30
[8]; [25]
  Morningglory plant response rating: 50
[9]; [22]
  Plant response rating (0 to 100 scale), Pigweed: 100
[9]; [23]
  Pigweed plant response rating: 0
[9]; [24]
  Plant response rating, Pigweed: 100
[9]; [25]
  Pigweed plant response rating: 70
[10]; [22]
  Plant response rating (0 to 100 scale), Velvetleaf: 30
[10]; [23]
  Velvetleaf plant response rating: 0
[10]; [25]
  Velvetleaf plant response rating: 40
[11]; [23]
  Blackgrass plant response rating: 20
[11]; [25]
  Blackgrass plant response rating: 80
[12]; [23]
  Wheat plant response rating: 0
[12]; [25]
  Wheat plant response rating: 10
[13]; [23]
  Oat, Wild plant response rating: 10
[13]; [25]
  Oat, Wild plant response rating: 40
[14]
  Rice plant response rating: 70
[15]
  Sedge, Umbrella plant response rating: 80
[16]
  Ducksalad plant response rating: 90
[17]
  Barnyardgrass plant response rating: 80
[18]; 62 g ai/ha, scale 0 to 100
  Rice plant response rating: 50
[18]; [26]
  Rice plant response rating: 55
[18]; [27]
  Rice plant response rating: 60
[18]; [28]
  Plant response rating, Rice: 70
[19]; 62 g ai/ha, scale 0 to 100
  Sedge, Umbrella plant response rating: 80
[19]; [26]
  Sedge, Umbrella plant response rating: 85
[19]; [27]
  Sedge, Umbrella plant response rating: 90
[19]; [28]
  Plant response rating, Sedge, Umbrella: 95
[20]; 62 g ai/ha, scale 0 to 100
  Ducksalad plant response rating: 80
[20]; [26]
  Ducksalad plant response rating: 85
[20]; [27]
  Ducksalad plant response rating: 85
[20]; [28]
  Plant response rating, Ducksalad: 95
[21]; 62 g ai/ha, scale 0 to 100 (0 no effect, 100 complete control)
  Barnyardgrass plant response rating: 45
[21]; [26]
  Barnyardgrass plant response rating: 70
[21]; [27]
  Barnyardgrass plant response rating: 90
[21]; [28]
  Plant response rating, Barnyardgrass: 95
